Data reported in patent US12150937B2, “NLRP3 modulators” (INNATE TUMOR IMMUNITY, INC., priority 2019, dated 2024).

Target: T1, NLRP3 (Homo sapiens, UniProt Q96P20)
T1 construct: Measurement of IL-1β Production in PMA-Differentiated THP-1 Cells; host or cells: THP-1 cells, PMA-differentiated
Assay: Measurement of IL-1β production in PMA-differentiated THP-1 cells (NLRP3 hIL1β)
Assay type: cell-based
Experimental: Measurement of IL-1β Production in PMA-Differentiated THP-1 Cells
THP-1 cells were purchased from the American Type Culture Collection and sub-cultured according to instructions from the supplier. Prior to experiments, cells were cultured in RPMI 1640 containing 10% heat inactivated FBS, penicillin (100 units/ml) and streptomycin (100 μg/ml), and maintained in log phase prior to experimental setup. Prior to the experiment THP-1 were treated with PMA (Phorbol 12-myristate 13-acetate) (10 μg/ml) for 24 hours. The day of the experiment the media was removed and attaching cells were treated with trypsin for 2 minutes, cells were then collected, washed with PBS (phosphate buffer saline), spin down, resuspended in 2% heat inactivated FBS with RPMI at a concentration of 1×10^6 cells/ml, and 100 μl was plated in a 96 well plate. Compounds were dissolved in dimethyl sulfoxide (DMSO) and added to the culture medium to achieve desired concentration (e.g. 100, 30, 10, 3, 1, 0.3 or 0.1 μM). Cells were incubated with compounds for 4 hours. Cell free supernatant was collected and the production of IL-1β was evaluated by ELISA. A vehicle only control was run concurrently with each experiment. Final DMSO concentration was 1%.
Measurement of IL-1β Production in PMA-Differentiated THP-1 Cells (Alternative Procedure)
THP-1 cells were purchased from the American Type Culture Collection and sub-cultured according to instructions from the supplier. Prior to experiments, cells were cultured in RPMI 1640 containing 10% heat inactivated FBS, penicillin (100 units/ml), streptomycin (100 μg/ml), HEPES (10 mM) and sodium pyruvate (1 mM) and maintained in log phase prior to experimental setup. Prior to the experiment, THP-1 cells were treated with PMA (Phorbol 12-myristate 13-acetate) (20 μg/ml) overnight. The day of the experiment, the media was removed and attached cells were treated with trypsin for 2 minutes, cells were then collected, washed with PBS (phosphate buffer saline), pelleted by centrifugation and resuspended in 2% heat inactivated FBS with RPMI at a concentration of 50,000 cells/well in a 384 well plate. Cell free supernatant was collected and the production of IL-1β was evaluated by ELISA. Compounds were dissolved in dimethyl sulfoxide (DMSO) and added to the culture medium to achieve desired concentration (e.g. 100, 30, 10, 3, 1, 0.3 or 0.1 μM). Cells were incubated with compounds for 2 hours. A vehicle only control was run concurrently with each experiment. Final DMSO concentration was 1%.
Measurement of IL-1β Production—hTRF Protocol (Second Alternative Procedure)
Serial dilutions of compounds in DMSO were added to low volume 384 well plates at 100 nl/well using an ECHO 550 acoustic dispenser (Labcyte) to achieve final starting concentration of 10 μM in assay.
THP-1 cells in RPMI (Gibco, 11875) media with 10% FBS at a density of 1×10^6 cell/ml in a T175 flask were treated with a final concentration of phorbol 12-myristate 13-acetate (PMA) (Sigma, P1585) of 50 ng/ml overnight at 37° C. at 5% CO2 for differentiation. Cells were harvested the next day after rinsing well wth dPBS using 0.5% trypsin. A cell solution was prepared of 1×10^6 cells/ml for 50,000 cells in 50 μl/well in RPMI media with 2% FBS. Cells were plated using a multichannel pipette onto the compound dilutions in Greiner, 384 well, black clear bottom tissue culture treated plates (781090). The plates were incubated in 37° C. incubator at 5% CO2 for 2 hours.
After the 2 hour incubation, the cell plates were spun in the centrifuge for 5 minutes at 1200 rpm. Using the Felix (CyBio), 8 μl of the supernatant was transferred to 384 well, low volume, white proxy plates. (Perkin Elmer, 6008230). A human IL1beta hTRF kit was used to analyze the supernatant (CISBIO, 62HIL1BPEG). The kit instructions were followed for preparing the IL1Beta standard curve and then the antibodies from the kit were diluted 1:40 rather than 1:20 as kit instructed. […]

T1 sequence (Q96P20 whole entry): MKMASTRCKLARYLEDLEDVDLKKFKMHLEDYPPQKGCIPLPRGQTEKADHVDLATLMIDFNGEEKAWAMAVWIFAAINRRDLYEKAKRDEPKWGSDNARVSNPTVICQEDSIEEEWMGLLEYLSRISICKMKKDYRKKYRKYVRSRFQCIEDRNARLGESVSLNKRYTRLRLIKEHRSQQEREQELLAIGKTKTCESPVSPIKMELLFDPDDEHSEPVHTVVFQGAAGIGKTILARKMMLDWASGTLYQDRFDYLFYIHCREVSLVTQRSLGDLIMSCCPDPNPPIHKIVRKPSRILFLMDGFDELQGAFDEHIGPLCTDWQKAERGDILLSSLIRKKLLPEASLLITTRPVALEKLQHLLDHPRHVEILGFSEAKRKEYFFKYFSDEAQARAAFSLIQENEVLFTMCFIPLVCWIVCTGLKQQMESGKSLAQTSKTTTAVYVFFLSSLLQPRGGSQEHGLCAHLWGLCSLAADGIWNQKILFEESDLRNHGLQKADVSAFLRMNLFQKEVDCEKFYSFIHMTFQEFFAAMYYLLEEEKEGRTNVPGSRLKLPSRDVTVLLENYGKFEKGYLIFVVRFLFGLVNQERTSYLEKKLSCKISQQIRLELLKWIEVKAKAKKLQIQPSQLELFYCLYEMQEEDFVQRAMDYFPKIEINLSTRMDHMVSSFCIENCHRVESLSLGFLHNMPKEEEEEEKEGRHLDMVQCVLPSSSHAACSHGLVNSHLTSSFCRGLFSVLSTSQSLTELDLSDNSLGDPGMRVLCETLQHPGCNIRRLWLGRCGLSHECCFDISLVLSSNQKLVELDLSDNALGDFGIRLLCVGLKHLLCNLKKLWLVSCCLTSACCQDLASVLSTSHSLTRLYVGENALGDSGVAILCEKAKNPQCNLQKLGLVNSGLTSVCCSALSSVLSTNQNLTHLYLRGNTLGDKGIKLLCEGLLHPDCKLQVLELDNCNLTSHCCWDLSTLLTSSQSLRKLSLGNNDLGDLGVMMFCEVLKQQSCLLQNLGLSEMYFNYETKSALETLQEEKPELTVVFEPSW

SMILES | EC50
Nc1cc(NCCCO)c2cnc(-c3cc[nH]n3)cc2n1 [Example 11] | 1700 nM
Nc1nc(NCc2cncnc2)c2ncc(-c3cc[nH]n3)cc2n1 [Example 18] | 2000 nM
Nc1nc(N[C@H]2CC[C@H](O)C2)c2ccc(-c3ccn[nH]3)nc2n1 [Example 7, (1S,3 S)-3-((2-amino-7-(1H-pyrazol-5-yl)pyrido[2,3-d]pyrimidin-4-yl)amino)cyclopentan-1-ol] | 5700 nM
Nc1cc(-c2cc[nH]n2)c2ncc(-c3ccn[nH]3)cc2n1 [Example 5, 4-(1H-pyrazol-3-yl)-7-(1H-pyrazol-5-yl)-1,5-naphthyridin-2-amine] | 860 nM
Nc1nc(NCCO)c2ncc(-c3cc[nH]n3)cc2n1 [Example 20] | 1900 nM
Nc1cc(N[C@H]2CCOC2)c2ccc(-c3cc[nH]n3)nc2n1 [Example 10] | 930 nM
Nc1cc(N[C@H]2CC[C@H](O)C2)c2cnc(-c3ccn[nH]3)cc2n1 [Example 2, (1S,3S)-3-((2-amino-7-(1H-pyrazol-5-yl)-1,6-naphthyridin-4-yl)amino)cyclopentan-1-ol] | 17000 nM
Nc1cc(N[C@@H]2CCOC2)c2ncc(-c3ccn[nH]3)cc2n1 [Example 14] | 2600 nM
Nc1cc(NCCCO)c2ccc(-c3cc[nH]n3)nc2n1 [Example 1, 3-((2-amino-7-(1H-pyrazol-3-yl)-1,8-naphthyridin-4-yl)amino)propan-1-ol] | 1000 nM
Nc1nc(N[C@@H]2CCOC2)c2ncc(-c3cc[nH]n3)cc2n1 [Example 6, (R)-7-(1H-pyrazol-3-yl)-N4-(tetrahydrofuran-3-yl)pyrido[3,2-d]pyrimidine-2,4-diamine] | 3600 nM
Nc1cc(N[C@H]2CC[C@H](O)C2)c2ccc(-c3cc[nH]n3)nc2n1 [Example 8] | 1600 nM
Nc1cc(NCc2cccnn2)c2ccc(-c3cc[nH]n3)nc2n1 [Example 9] | 2000 nM
Nc1cc(N[C@H]2CCOC2)c2cnc(-c3cc[nH]n3)cc2n1 [Example 12] | 1700 nM
Nc1cc(N[C@H]2CC[C@H](O)C2)c2ncc(-c3ccn[nH]3)cc2n1 [Example 4, (1S,3S)-3-((2-amino-7-(1H-pyrazol-5-yl)-1,5-naphthyridin-4-yl)amino)cyclopentan-1-ol] | 3500 nM

Stronger by EC50, values ahead:

EC50 | SMILES
280 nM | Nc1cc(NCc2cccnn2)c2ncc(-c3ccn[nH]3)cc2n1 [Example 29]
590 nM | Nc1cc(N[C@@H]2CC[C@@H](O)C2)c2ncc(-c3ccn[nH]3)cc2n1 [Example 26]
310 nM | Nc1cc(NCCO)c2ncc(-c3ccn[nH]3)cc2n1 [Example 3, 2-((2-amino-7-(1H-pyrazol-3-yl)-1,5-naphthyridin-4-yl)amino)ethan-1-ol]
280 nM | Nc1cc(NCc2cc[nH]n2)c2ncc(-c3ccn[nH]3)cc2n1 [Example 15]
830 nM | Nc1nc(NCCCO)c2ncc(-c3cc[nH]n3)cc2n1 [Example 17]
690 nM | Nc1nc(NCCc2ccccn2)c2ncc(-c3cc[nH]n3)cc2n1 [Example 19]
350 nM | Nc1cc(NCCCO)c2ncc(-c3ccn[nH]3)cc2n1 [Example 16]
310 nM | C[C@H](O)CNc1cc(N)nc2cc(-c3ccn[nH]3)cnc12 [Example 24]
80 nM | C[C@@H](O)CNc1cc(N)nc2cc(-c3ccn[nH]3)cnc12 [Example 25]
140 nM | Nc1cc(N[C@H]2C[C@H](O)C2)c2ncc(-c3ccn[nH]3)cc2n1 [Example 28]
700 nM | Nc1nc(N2CCCOCC2)c2ncc(-c3cc[nH]n3)cc2n1 [Example 21]
